How the values were obtained:
Cathepsin S [1] = target: Cathepsin S (Homo sapiens, UniProt P25774); assay: Inhibition of human cathepsin S
Cathepsin K [2] = target: T1, Cathepsin K (Homo sapiens, UniProt P43235); assay: Inhibition of human cathepsin K
T1 sequence (P43235 whole entry): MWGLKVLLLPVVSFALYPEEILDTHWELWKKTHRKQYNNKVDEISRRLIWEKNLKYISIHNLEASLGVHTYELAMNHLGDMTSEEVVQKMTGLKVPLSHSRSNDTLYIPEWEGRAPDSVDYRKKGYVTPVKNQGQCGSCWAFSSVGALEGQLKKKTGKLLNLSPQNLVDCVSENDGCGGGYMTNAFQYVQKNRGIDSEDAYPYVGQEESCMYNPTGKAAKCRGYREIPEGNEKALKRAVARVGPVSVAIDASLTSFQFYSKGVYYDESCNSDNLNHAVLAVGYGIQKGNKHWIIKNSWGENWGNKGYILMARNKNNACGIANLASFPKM

Cathepsin B [3] = target: Cathepsin B (Homo sapiens, UniProt P07858); assay: Inhibition of human cathepsin B
Procathepsin L [4] = target: Procathepsin L (Homo sapiens, UniProt P07711); assay: Inhibition of human cathepsin L
Sequence of Procathepsin L (Homo sapiens, UniProt P07711) (P07711 whole entry): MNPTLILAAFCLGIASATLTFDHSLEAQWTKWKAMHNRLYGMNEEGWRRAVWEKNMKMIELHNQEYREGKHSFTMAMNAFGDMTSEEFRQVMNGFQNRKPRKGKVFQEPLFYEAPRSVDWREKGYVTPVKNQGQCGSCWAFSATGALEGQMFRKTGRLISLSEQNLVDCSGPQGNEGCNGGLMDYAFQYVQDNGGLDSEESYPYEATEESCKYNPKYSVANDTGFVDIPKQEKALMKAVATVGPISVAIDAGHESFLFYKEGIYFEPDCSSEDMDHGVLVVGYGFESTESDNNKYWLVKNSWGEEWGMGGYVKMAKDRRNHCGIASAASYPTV

Cathepsin S [5] = target: Cathepsin S (Mus musculus, UniProt O70370); assay: Inhibition of mouse recombinant cathepsin S
Sequence of Cathepsin S (Mus musculus, UniProt O70370) (O70370 whole entry): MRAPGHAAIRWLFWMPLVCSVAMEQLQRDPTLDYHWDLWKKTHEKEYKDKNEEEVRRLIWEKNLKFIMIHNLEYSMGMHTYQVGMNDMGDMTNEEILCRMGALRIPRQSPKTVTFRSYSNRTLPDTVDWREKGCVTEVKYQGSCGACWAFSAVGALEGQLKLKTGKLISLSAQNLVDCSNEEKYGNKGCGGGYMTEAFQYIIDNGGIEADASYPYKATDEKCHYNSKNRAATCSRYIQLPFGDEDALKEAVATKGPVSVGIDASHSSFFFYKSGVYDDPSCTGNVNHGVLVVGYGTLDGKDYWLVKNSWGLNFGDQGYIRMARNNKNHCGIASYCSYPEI

Cathepsin K [6] = target: T2, Cathepsin K (Mus musculus, UniProt P55097); assay: Inhibition of mouse recombinant cathepsin K
T2 sequence (P55097 whole entry): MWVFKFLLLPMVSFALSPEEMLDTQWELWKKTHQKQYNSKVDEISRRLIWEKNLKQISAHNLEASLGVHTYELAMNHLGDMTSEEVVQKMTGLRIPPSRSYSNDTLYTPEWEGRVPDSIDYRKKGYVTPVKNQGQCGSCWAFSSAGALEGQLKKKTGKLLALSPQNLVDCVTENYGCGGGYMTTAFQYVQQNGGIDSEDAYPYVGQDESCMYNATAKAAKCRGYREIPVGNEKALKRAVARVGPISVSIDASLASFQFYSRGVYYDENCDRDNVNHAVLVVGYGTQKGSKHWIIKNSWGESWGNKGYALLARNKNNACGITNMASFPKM

Cathepsin B [7] = target: Cathepsin B (Mus musculus, UniProt P10605); assay: Inhibition of mouse recombinant cathepsin B
Sequence of Cathepsin B (Mus musculus, UniProt P10605) (P10605 whole entry): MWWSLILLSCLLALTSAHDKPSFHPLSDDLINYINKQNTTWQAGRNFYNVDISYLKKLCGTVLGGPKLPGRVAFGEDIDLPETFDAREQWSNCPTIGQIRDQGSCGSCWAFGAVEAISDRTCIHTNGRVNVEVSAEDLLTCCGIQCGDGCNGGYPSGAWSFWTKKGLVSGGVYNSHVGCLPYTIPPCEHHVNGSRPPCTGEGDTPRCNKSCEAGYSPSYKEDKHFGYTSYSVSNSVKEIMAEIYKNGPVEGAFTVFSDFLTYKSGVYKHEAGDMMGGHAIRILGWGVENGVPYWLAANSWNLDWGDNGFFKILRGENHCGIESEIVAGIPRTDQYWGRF

Cathepsin S [8] = target: Cathepsin S (Rattus norvegicus, UniProt Q02765); assay: Inhibition of rat spleen cathepsin S; format: tissue-based
Sequence of Cathepsin S (Rattus norvegicus, UniProt Q02765) (Q02765 whole entry): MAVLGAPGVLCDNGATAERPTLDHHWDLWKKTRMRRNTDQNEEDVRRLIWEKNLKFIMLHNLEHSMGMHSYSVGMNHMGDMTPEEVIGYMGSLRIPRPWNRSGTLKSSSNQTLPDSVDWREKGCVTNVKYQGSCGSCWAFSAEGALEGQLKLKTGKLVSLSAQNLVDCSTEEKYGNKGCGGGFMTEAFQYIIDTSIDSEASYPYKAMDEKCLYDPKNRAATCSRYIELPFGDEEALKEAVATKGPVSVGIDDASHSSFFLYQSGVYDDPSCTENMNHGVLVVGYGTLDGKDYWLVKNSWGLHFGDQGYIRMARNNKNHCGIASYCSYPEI

Cathepsin B [9] = target: Cathepsin B (Rattus norvegicus, UniProt P00787); assay: Inhibition of rat liver lysosomal cathepsin B
Sequence of Cathepsin B (Rattus norvegicus, UniProt P00787) (P00787 whole entry): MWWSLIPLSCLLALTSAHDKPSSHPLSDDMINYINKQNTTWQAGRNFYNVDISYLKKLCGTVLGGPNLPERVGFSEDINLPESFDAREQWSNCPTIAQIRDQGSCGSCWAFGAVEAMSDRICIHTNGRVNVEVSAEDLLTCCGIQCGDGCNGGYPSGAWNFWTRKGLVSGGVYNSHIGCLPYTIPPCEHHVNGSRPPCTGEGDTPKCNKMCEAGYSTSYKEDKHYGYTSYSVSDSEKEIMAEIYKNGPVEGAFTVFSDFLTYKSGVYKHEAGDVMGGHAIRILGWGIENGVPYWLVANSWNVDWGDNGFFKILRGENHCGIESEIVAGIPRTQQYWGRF

Procathepsin L [10] = target: T3, Procathepsin L (Mus musculus, UniProt P06797); assay: Inhibition of mouse recombinant cathepsin L
T3 sequence (P06797 whole entry): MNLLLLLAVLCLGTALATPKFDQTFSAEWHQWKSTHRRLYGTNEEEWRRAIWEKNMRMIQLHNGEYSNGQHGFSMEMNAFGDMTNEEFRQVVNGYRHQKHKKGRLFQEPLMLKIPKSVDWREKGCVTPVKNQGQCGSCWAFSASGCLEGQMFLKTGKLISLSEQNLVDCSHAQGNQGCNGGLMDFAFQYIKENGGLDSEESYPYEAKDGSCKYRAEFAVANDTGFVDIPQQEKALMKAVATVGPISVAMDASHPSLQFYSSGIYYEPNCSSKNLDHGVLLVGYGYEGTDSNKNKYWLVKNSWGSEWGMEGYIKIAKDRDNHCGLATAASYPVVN

Procathepsin L [11] = target: T4, Procathepsin L (Rattus norvegicus, UniProt P07154); assay: Inhibition of rat liver lysosomal cathepsin L
T4 sequence (P07154 whole entry): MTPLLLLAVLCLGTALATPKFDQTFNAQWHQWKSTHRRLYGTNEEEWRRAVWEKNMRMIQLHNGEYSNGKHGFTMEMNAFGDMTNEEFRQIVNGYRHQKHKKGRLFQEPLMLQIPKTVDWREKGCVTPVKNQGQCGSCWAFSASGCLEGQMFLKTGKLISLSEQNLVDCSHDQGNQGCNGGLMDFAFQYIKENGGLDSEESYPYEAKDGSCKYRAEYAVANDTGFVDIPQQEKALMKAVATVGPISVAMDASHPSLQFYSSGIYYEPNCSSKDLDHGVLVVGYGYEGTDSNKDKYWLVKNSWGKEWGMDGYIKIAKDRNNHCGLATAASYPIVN

[12] = Cmax in po dosed Sprague-Dawley rat administered in 1:1 inwitor/tween 80 solution; format: ADME, organism-based; parameters: route oral; conditions: in vivo
Rattus norvegicus = assay: Half life in po dosed Sprague-Dawley rat administered in 1:1 inwitor/tween 80 solution; format: ADME, organism-based; conditions: in vivo
[13] = Bioavailability in po dosed Sprague-Dawley rat administered in 1:1 inwitor/tween 80 solution; format: ADME, organism-based; conditions: in vivo
[14] = Bioavailability in Sprague-Dawley rat; format: ADME, organism-based; conditions: in vivo
[15] = Cmax in Sprague-Dawley rat; format: ADME, organism-based; conditions: in vivo
[16] = Half life in Sprague-Dawley rat; format: ADME, organism-based; conditions: in vivo
[17] = Inhibition of antigen presentation in mouse B cells; format: functional, cell-based

Sequence of Cathepsin S (Homo sapiens, UniProt P25774) (P25774 whole entry): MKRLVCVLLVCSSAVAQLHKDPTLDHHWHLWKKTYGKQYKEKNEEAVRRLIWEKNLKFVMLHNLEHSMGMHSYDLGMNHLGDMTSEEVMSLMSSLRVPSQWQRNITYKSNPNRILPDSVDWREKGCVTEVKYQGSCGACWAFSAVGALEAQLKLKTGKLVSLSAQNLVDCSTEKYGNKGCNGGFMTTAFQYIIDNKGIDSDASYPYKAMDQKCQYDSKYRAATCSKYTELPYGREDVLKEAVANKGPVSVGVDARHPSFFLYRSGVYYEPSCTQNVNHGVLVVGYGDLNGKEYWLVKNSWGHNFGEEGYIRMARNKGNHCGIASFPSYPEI

| Structure (SMILES) | IC50 (Cathepsin S [1]) [nM] | IC50 (Cathepsin K [2]) [nM] | IC50 (Cathepsin B [3]) [µM] | IC50 (Procathepsin L [4]) [nM] | IC50 (Cathepsin S [5]) [nM] | IC50 (Cathepsin K [6]) [nM] | IC50 (Cathepsin B [7]) [nM] | IC50 (Cathepsin S [8]) [nM] | IC50 (Cathepsin B [9]) [nM] | IC50 (Procathepsin L [10]) [nM] | IC50 (Procathepsin L [11]) [nM] | Cmax [12] [nM] | t1/2 (Rattus norvegicus) [h] | bioavailability [13] [%] | bioavailability [14] [%] | Cmax [15] [nM] | half-life [16] [min] | IC50 [17] [µM] |
| --- | --- | --- | --- | --- | --- | --- | --- | --- | --- | --- | --- | --- | --- | --- | --- | --- | --- | --- |
| CS(=O)(=O)C[C@H](N[C@@H](c1cccc(F)c1)C(F)(F)F)C(=O)NC1(C#N)CC1 | 6.4 | 314 | 3.85 | 911 | – | – | – | – | – | – | – | – | – | – | – | – | – | – |
| C[S+]([O-])C[C@H](N[C@@H](c1ccc(Br)cc1)C(F)(F)F)C(=O)NC1(C#N)CC1 (some centres undefined) | 2170 | 639 | 8.03 | > 10000 | – | – | – | – | – | – | – | – | – | – | – | – | – | – |
| CC(C)CS(=O)(=O)C[C@H](N[C@@H](c1ccc(F)cc1)C(F)(F)F)C(=O)NC1(C#N)CC1 | 0.4 | 3060 | 0.337 | 132 | – | – | – | – | – | – | – | – | – | – | 5 | 140 | 96 | – |
| N#CC1(NC(=O)[C@H](CS(=O)(=O)CC2CC2)N[C@@H](c2ccc(F)cc2)C(F)(F)F)CC1 | 0.5 | 2000 | 1 | 188 | 0.9 | > 10000 | 253 | 759 | 272 | 332 | 738 | – | – | – | 40 | 2800 | 228 | – |
| CC(C)C[C@H](N[C@@H](c1ccc(-c2ccc(S(C)(=O)=O)cc2)cc1)C(F)(F)F)C(=O)NCC#N | – | 0.2 | – | – | 254 | 43 | 540 | 2440 | 925 | 254 | 90 | – | – | – | – | – | – | 4.81 |

Next, values leading:

| IC50 (Cathepsin S [1]) [nM] | IC50 (Cathepsin K [2]) [nM] | IC50 (Cathepsin B [3]) [µM] | IC50 (Procathepsin L [4]) [nM] | IC50 (Cathepsin S [5]) [nM] | IC50 (Cathepsin K [6]) [nM] | IC50 (Cathepsin B [7]) [nM] | IC50 (Cathepsin S [8]) [nM] | IC50 (Cathepsin B [9]) [nM] | IC50 (Procathepsin L [10]) [nM] | IC50 (Procathepsin L [11]) [nM] | Cmax [12] [nM] | t1/2 (Rattus norvegicus) [h] | bioavailability [13] [%] | bioavailability [14] [%] | Cmax [15] [nM] | half-life [16] [min] | IC50 [17] [µM] | Structure (SMILES) |
| --- | --- | --- | --- | --- | --- | --- | --- | --- | --- | --- | --- | --- | --- | --- | --- | --- | --- | --- |
| 0.5 | > 10000 | 2.78 | 86 | – | – | – | – | – | – | – | – | – | – | – | – | – | – | N#CC1(NC(=O)[C@H](CS(=O)(=O)Cc2ccc(F)cc2)N[C@@H](c2ccccc2)C(F)(F)F)CC1 |
| 0.2 | 269 | 6.63 | 23 | < 0.2 | 2550 | 4010 | 44 | 4700 | 90 | 132 | – | – | – | – | – | – | – | N#CC1(NC(=O)[C@H](CS(=O)(=O)c2cccc(Br)c2)N[C@@H](c2ccccc2)C(F)(F)F)CC1 |
| 0.4 | 305 | 7.28 | 22 | – | – | – | – | – | – | – | – | – | – | – | – | – | – | N#CC1(NC(=O)[C@H](CS(=O)(=O)c2ccc(F)cc2)N[C@@H](c2ccc(F)cc2)C(F)(F)F)CC1 |
| 1.8 | > 10000 | 4.04 | > 10000 | – | – | – | – | – | – | – | – | – | – | – | – | – | – | N#CC1(NC(=O)[C@H](CS(=O)(=O)Cc2ccccc2-c2ccccc2)N[C@@H](c2ccc(F)cc2)C(F)(F)F)CC1 |
| 0.2 | 691 | 4.81 | 41 | – | – | – | – | – | – | – | 250 | 1.2 | 35 | – | – | – | – | N#CC1(NC(=O)[C@H](CS(=O)(=O)c2ccc(Cl)c(Cl)c2)N[C@@H](c2ccc(F)cc2)C(F)(F)F)CC1 |
| 1.3 | 825 | 2.97 | 114 | – | – | – | – | – | – | – | – | – | – | – | – | – | – | N#CC1(NC(=O)[C@H](CS(=O)(=O)c2nc3ccccc3s2)N[C@@H](c2ccccc2)C(F)(F)F)CC1 |
| 0.2 | 314 | 8.51 | 24 | < 0.2 | 1460 | 3020 | 15 | 5690 | 59 | 48 | 660 | 1.7 | 30 | 9 | 88 | 102 | – | N#CC1(NC(=O)[C@H](CS(=O)(=O)c2ccc(Cl)c(Cl)c2)N[C@@H](c2ccccc2)C(F)(F)F)CC1 |

From ChEMBL document CHEMBL1140679, “The identification of potent, selective, and bioavailable cathepsin S inhibitors” (Bioorg Med Chem Lett, 2007)
